“Also recorded” adds a separate entry of the source.
What was measured:
neuraminidase = test: Western blot of viral protein synthesis in H1N1-infected MDCK cells, neuraminidase; details: 5, 10, 20, and 40 μM, 24 h
hemagglutinin = test: Western blot of viral protein synthesis in H1N1-infected MDCK cells, hemagglutinin; details: 5, 10, 20, and 40 μM, 24 h
Cytotoxicity assay (MTT) = details: dog
in vitro = details: dog

For `Oc1cc(O)cc(Oc2c(O)cc(O)c3c2Oc2c(O)cc4oc5c(Oc6cc(O)cc(O)c6)c(O)cc(O)c5c4c2O3)c1` [Compound 12, Phlorofucofuroeckol A], the “inhibition of neuraminidase expression (viral protein synthesis, Western blot)” value (neuraminidase) was “decreased the expression of neuraminidase and hemagglutinin at 10 μM; also recorded: strongest inhibition capacity was observed at 40 µM; also recorded: strong inhibitory effects”, the “inhibition of hemagglutinin expression (viral protein synthesis, Western blot)” value (hemagglutinin) was “decreased the expression of neuraminidase and hemagglutinin at 10 μM; also recorded: strongest inhibition capacity was observed at 40 µM; also recorded: strong inhibitory effects” and the CC50 at 48 h (Cytotoxicity assay (MTT)) was over 100 µM.

`Oc1cc(O)c2oc3cc(O)c4oc5cc(O)cc(O)c5oc4c3oc2c1` [Compound 14, Dioxinodehydroeckol] showed a CC50 at 48 h (in vitro) of over 100 µM.

For `Oc1cc(O)cc(Oc2c(O)cc(O)c3c2Oc2c(O)cc(Oc4c(O)cc(Oc5c(O)cc(O)c6c5Oc5c(O)cc(O)cc5O6)cc4O)cc2O3)c1` [Compound 11, Dieckol], the CC50 at 48 h (Cytotoxicity assay (MTT)) was over 100 µM.

`Oc1cc(O)c2c(c1)Oc1c(O)cc(O)cc1O2` [Compound 13, Dibenzo[1,4]dioxine-2,4,7,9-tetraol] gave a CC50 at 48 h (Cytotoxicity assay (MTT)) of over 100 µM.
